Experiment [1] concerns FECD corneal endothelium attached to the Descemet membrane. Briefly: Endothelial cell apoptosis (TUNEL) in post-keratoplasty FECD specimens, +/- tBHP. It counts as cell-based, human. On the procedure:
Immunocytochemistry. […] After permeabilization, corneas were incubated with goat anti-8-OHdG (1:200; Millipore) followed by incubation with appropriate secondary antibodies. Nuclei were stained with TO-PRO-3 iodide (Molecular Probes). Corneal endothelial tight junctions were detected by rabbit anti-zonula occludens-1 (anti-ZO-1) antibody (1:300; Invitrogen).
An Nrf2-controlled pathway is affected during the endothelial cell loss from surgery and from dystrophic degeneration. […] Nrf2 is a transcription factor that causes a coordinated upregulation of multiple antioxidants, such as glutathione transferases, glutathione peroxidases, peroxiredoxins, thioredoxins, NADH(P)H hydrogenases, heme-oxygenases, glutamate- cysteine ligases. Sulforaphane (SF) and D3T upregulate Nrf2 on a protein level and enhance cellular antioxidant defense. Thus, studies were carried out to investigate the effect of SF on endothelial cell apoptosis with and without pro-oxidants. Post-keratoplasty FECD specimens, containing corneal endothelium attached to the Descemet membrane, were exposed to four experimental conditions: +/− tBHP with is a long acting pro-oxidant and +/−SF. The rate of endothelial cell apoptosis (as detected by TUNEL) in FECD endothelium was 31% and it decreased to 13% (p=1.5E-06) with SF treatment. Under pro-oxidant conditions, SF decreased endothelial cell apoptosis from 60% to 33% (p=0.016) (FIG. 11A). Similarly, D3T diminished endothelial cell apoptosis by decreasing the number of apoptotic cells from 52% to 30% (p<0.05) (FIG. 11B).

Experiment [2] has as its system mouse corneal endothelium. To be noted: 1 μM. The method, then: (§1) Corneal Whole Mount Assays. Eight (8-) to 12-wk-old male BALB/c and C57BL/6 (from Taconic Farms, Germantown, NY and our own breeding facility) were used for corneal whole mount assays. All protocols were approved by the Schepens Eye Research Institute Animal Care and Use Committee, and all animals were treated according to the Association for Research in Vision and Ophthalmology Statement for the Use of Animals in Ophthalmic and Vision Research. […] Control corneal buttons were incubated in DMEM only at 37° C. for 0-12 hours. Immunocytochemistry. Immunocytochemistry was performed as previously described.17 Normal, FECD, and PBK corneas were incubated in culture medium containing 100 nM MitoTracker Red CMXRos (Molecular Probes) for 30 minutes at 37° C., then fixed with 3.7% formaldehyde. […] Millipore) followed by incubation with appropriate secondary antibodies. Nuclei were stained with TO-[…] iodide (Molecular Probes). […] Invitrogen). […] Bioscience), propidium iodide (1:200; Invitrogen), and TUNEL assay (In Situ Cell Death Detection Kit, Roche Diagnostics GmbH) according to the manufacturers' instructions. Digital images were obtained using a spectral photometric confocal microscope ([…][…] with LCS 1.3.1 software).

In experiment [3] the test system is mouse corneal endothelium. To be noted: 30 minutes. On the procedure: as §1, with “software). Analysis of CE Cell Morphology. […] (variation in cell size) and pleomorphism (variation in cell shape) were then calculated.” for “software).”
The next experiment deals with HCECi. To be noted: H2O2 200 μM, 2 hours; P=0.001. On the procedure:
Human Corneal Endothelial Cell Culture. […] The culture medium of subconfluent cells was replaced with serum-free medium (OptiMEM-1; Invitrogen-Life Technologies) alone or supplemented with H2O2 (200 μM) and incubated for 2 hours at 37° C. At the end of the treatment, cell viability was evaluated by trypan blue staining.

The subject of experiment [4] is Nrf2 mRNA expression in HCECi. To be noted: H2O2 200 μM, 2 hours; normalized to B2M; non-treated control 1.00±0.05; P=0.004. On the procedure:
Human Corneal Endothelial Cell Culture. […] The culture medium of subconfluent cells was replaced with serum-free medium (OptiMEM-1; Invitrogen-Life Technologies) alone or supplemented with H2O2 (200 μM) and incubated for 2 hours at 37° C. At the end of the treatment, cell viability was evaluated by trypan blue staining. Real-time PCR. […] Reverse transcription was performed using a commercially available kit (Promega). […] Real-time PCR reactions were run on an ABI Prism 7500 HT Sequence Detection System (Applied Biosystems). For data analysis, the comparative Ct method was performed.

Read-outs that look alike come from different tables or passages of the source.

Take `C[S+]([O-])CCCCN=C=S` (stereo not shown) [SF, sulforaphane]: in experiment [1] (FECD endothelium, without pro-oxidant (tBHP-), 31% without SF, p=1.5E-06), the “rate of endothelial cell apoptosis (as detected by TUNEL) with SF treatment” value was found to be 13%. Besides, the “endothelial cell apoptosis with SF under pro-oxidant conditions” value in experiment [1] (FECD specimens exposed to tBHP, 60% without SF, p=0.016) was 33%. In experiment [1] (SF treatment, without pro-oxidant conditions [tBHP-], p=1.57E-06), the “decrease of endothelial cell apoptosis in FECD” value turned out to be 58%. For the same compound, in experiment [1] (specimens exposed to pro-oxidants or tBHP, p=0.016), the “decrease of endothelial cell apoptosis” value was at most 45%.
Regarding `OO` [H2O2, hydrogen peroxide], the “mitochondrial staining (MitoTracker CMXRos)” value is “decline in the mitochondrial density” in experiment [2] (1-hour treatment); “no detectable mitochondrial staining” in experiment [2] (2-hour treatment, P<0.01); “significant decrease” in experiment [2] (90 minutes, P<0.01). The “CE cells with early apoptosis (annexin-V-positive, PI-negative)” value is “Approximately 5%” in experiment [2] (60 minutes, P<0.01) and about 11% in experiment [2] (90 minutes, P<0.01). Moreover, in experiment [2] (120 minutes, P<0.01), the “late apoptosis (annexin-V-positive, PI-positive)” value is reported as “identified”. Moreover, the “CE cell density as measured by ZO-1 labeling” value in experiment [3] (0-100 μM) is “no statistically significant effect”. The “percent of hexagonal cells (pleomorphism)” value in experiment [3] (100 μM, P=0.007) is reported as “declined significantly”. For the same compound, the “level of 8-OHdG relative to control cells” value in the experiment on HCECi was determined as 2 fold. In addition, in experiment [4], the “relative expression of Nrf2 mRNA (mean±SEM)” value is given as 0.66±0.02.
`S=c1ccss1` [D3T, 3H-1,2-dithiole-3-thione]: in experiment [1] (FECD, absence of oxidative stress, 52% without D3T, p<0.05), the “number of apoptotic cells with D3T” value is reported as 30%. For the same compound, the “effect on percentage of apoptotic cells in FECD” value in experiment [1] (absence of oxidative stress) is given as “decreased the percentage of apoptotic cells”.

The values are drawn from patent publication US20160175380A1, “Compositions and Methods of Treatment of Corneal Endothelium Disorders” (The Schepens Eye Research Institute, Inc., priority 2010, published 2016).
